Measurements published in PubChem BioAssay AID1259411 (Chemical Carcinogenesis Research Information System (CCRIS), 2018).
Calls of active or inactive are those of the source. No rule for the calls is given here.

Test system: rodent carcinogenicity bioassays, tumor incidence
Experiment: CCRIS carcinogenicity studies
In short: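 NCI-built, expert-reviewed records of carcinogenicity and related test outcomes (mutagenicity, tumor promotion/inhibition) compiled from published and report sources, historical span 1985-2011, not updated.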

[K+]
carcinogen call (Species: RAT, Strain/Sex: F344/FEMALE, Route: ORAL, Dose: 0, 10, 100, 1000 PPM IN DRINKING WATER FOR 2 YR (STUDY DURATION: 2 YR), Dose: 0, 10, 100, 1000 PPM IN DRINKING WATER FOR 2 YR (STUDY DURATION: 2 YR), Tumor Site: Type of Lesion: SALIVARY GLAND: SQUAMOUS CELL CARCINOMA): active; positive
carcinogen call (Species: RAT, Strain/Sex: F344/MALE, Route: ORAL, Dose: 0, 10, 100, 1000 PPM IN DRINKING WATER FOR 2 YR (STUDY DURATION: 2 YR), Dose: 0, 10, 100, 1000 PPM IN DRINKING WATER FOR 2 YR (STUDY DURATION: 2 YR), Tumor Site: Type of Lesion: SALIVARY GLAND: SQUAMOUS CELL CARCINOMA): active; positive

Nc1cc(Cl)cc(C(=O)O)c1Cl
carcinogen call (Species: MOUSE, Strain/Sex: B6C3F1/FEMALE, Route: ORAL, Dose: 0, 10000, 20000 PPM IN DIET FOR 80 WK (STUDY DURATION: 91-92 WK), Dose: 0, 10000, 20000 PPM IN DIET FOR 80 WK (STUDY DURATION: 91-92 WK), Tumor Site: Type of Lesion: LIVER: HEPATOCELLULAR CARCINOMA): active; positive
carcinogen call (Species: MOUSE, Strain/Sex: B6C3F1/MALE, Route: ORAL, Dose: 0, 10000, 20000 PPM IN DIET FOR 80 WK (STUDY DURATION: 91-92 WK), Dose: 0, 10000, 20000 PPM IN DIET FOR 80 WK (STUDY DURATION: 91-92 WK), Tumor Site: Type of Lesion: LIVER: HEPATOCELLULAR CARCINOMA): equivocal
carcinogen call (Species: RAT, Strain/Sex: OSBORNE-MENDEL/FEMALE, Route: ORAL, Dose: 0, 10000, 20000 PPM IN DIET FOR 80 WK (STUDY DURATION: 112-113 WK ), Dose: 0, 10000, 20000 PPM IN DIET FOR 80 WK (STUDY DURATION: 112-113 WK )): inactive; negative
carcinogen call (Species: RAT, Strain/Sex: OSBORNE-MENDEL/MALE, Route: ORAL, Dose: 0, 10000, 20000 PPM IN DIET FOR 80 WK (STUDY DURATION: 112-113 WK), Dose: 0, 10000, 20000 PPM IN DIET FOR 80 WK (STUDY DURATION: 112-113 WK)): inactive; negative

CNC(=O)N(C)N=O
carcinogen call (Species: RAT, Strain/Sex: F344/FEMALE, Route: GAVAGE, Dose: 0, 20, 40 UMOL/WK IN CORN OIL/ETHYL ACETATE (2: 1) FOR 30 WK FOR TOTAL DOSES OF 0, 0.6, 1.2 MMOL (STUDY DURATION: LIFETI, Dose: 0, 20, 40 UMOL/WK IN CORN OIL/ETHYL ACETATE (2: 1) FOR 30 WK FOR TOTAL DOSES OF 0, 0.6, 1.2 MMOL (STUDY DURATION: LIFETI, Tumor Site: Type of Lesion: NERVOUS SYSTEM: TUMOR): active; positive
carcinogen call (Species: RAT, Strain/Sex: F344/FEMALE, Route: INTRAVESICULAR, Dose: 0, 2.4 MG 2/WK FOR 30 WK (STUDY DURATION: LIFETIME), Tumor Site: Type of Lesion: BRAIN: TUMOR, KIDNEY: TUMOR): active; positive
carcinogen call (Species: RAT, Strain/Sex: F344/FEMALE, Route: ORAL, Dose: 0, 20, 40 UMOL/WK IN DRINKING WATER FOR 30 WK FOR TOTAL DOSES OF 0, 0.6, 1.2 MMOL (STUDY DURATION: LIFETIME), Dose: 0, 20, 40 UMOL/WK IN DRINKING WATER FOR 30 WK FOR TOTAL DOSES OF 0, 0.6, 1.2 MMOL (STUDY DURATION: LIFETIME), Tumor Site: Type of Lesion: UTERUS: TUMOR, THYROID: FOLLICULAR CELL TUMOR, NERVOUS SYSTEM: TUMOR, Tumor Site: Type of Lesion: UTERUS: TUMOR, THYROID: FOLLICULAR CELL TUMOR, NERVOUS SYSTEM: TUMOR): active; positive
carcinogen call (Species: RAT, Strain/Sex: F344/MALE, Route: GAVAGE, Dose: 0, 20, 40 UMOL/WK IN CORN OIL/ETHYL ACETATE (2: 1) FOR 30 WK FOR TOTAL DOSES OF 0, 0.6, 1.2 MMOL (STUDY DURATION: LIFETI, Dose: 0, 20, 40 UMOL/WK IN CORN OIL/ETHYL ACETATE (2: 1) FOR 30 WK FOR TOTAL DOSES OF 0, 0.6, 1.2 MMOL (STUDY DURATION: LIFETI, Tumor Site: Type of Lesion: NERVOUS SYSTEM: TUMOR, TESTIS: MESOTHELIOMA): active; positive
carcinogen call (Species: RAT, Strain/Sex: F344/MALE, Route: ORAL, Dose: 0, 20, 40 UMOL/WK IN DRINKING WATER FOR 30 WK FOR TOTAL DOSES OF 0, 0.6, 1.2 MMOL (STUDY DURATION: LIFETIME), Dose: 0, 20, 40 UMOL/WK IN DRINKING WATER FOR 30 WK FOR TOTAL DOSES OF 0, 0.6, 1.2 MMOL (STUDY DURATION: LIFETIME), Tumor Site: Type of Lesion: TESTIS: MESOTHELIOMA, NERVOUS SYSTEM: TUMOR): active; positive

O/N=c1\ccn(O)c2ccccc12
carcinogen call (Species: MOUSE, Strain/Sex: DDD/FEMALE, Route: SUBCUTANEOUS, Dose: 53 NMOL IN 0.1 ML OLIVE OIL WITHIN 24 HR AFTER BIRTH (STUDY DURATION: 400 D), Tumor Site: Type of Lesion: LUNG: ADENOMA, INJECTION SITE: SARCOMA, HEMATOPOIETIC SYSTEM: LEUKEMIA OR LYMPHOSARCOMA, Tumor Site: Type of Lesion: LUNG: ADENOMA, INJECTION SITE: SARCOMA, HEMATOPOIETIC SYSTEM: LEUKEMIA OR LYMPHOSARCOMA): active; positive
carcinogen call (Species: RAT, Strain/Sex: BUFFALO/FEMALE, Route: GAVAGE, Dose: 1 MG/0.1 ML OR 2 MG/0.2 ML IN 60% ETHANOL SOLUTION 1/3 WK (TOTAL DOSE: 30 MG) (STUDY DURATION: 610 D), Tumor Site: Type of Lesion: GLANDULAR STOMACH: MUCOSAL CARCINOMA, MAMMARY GLAND: TUMOR, THYMUS GLAND: THYMOMA, Tumor Site: Type of Lesion: GLANDULAR STOMACH: MUCOSAL CARCINOMA, MAMMARY GLAND: TUMOR, THYMUS GLAND: THYMOMA): active; positive

[C-]#[Si+]
carcinogen call (Species: RAT, Strain/Sex: AF/HAN, Route: INHALATION, Dose: 0, 1000 FIBERS/ML IN AIR 7 HR/D 5 D/WK FOR 1 YR (STUDY DURATION: LIFESPAN), Tumor Site: Type of Lesion: LUNG: ADENOMA, CARCINOMA): active; positive
carcinogen call (Species: RAT, Strain/Sex: F344/FEMALE, Route: INTRAPERITONEAL, Dose: 0, 20 MG SILICON CARBIDE WHISKERS ONCE (STUDY DURATION: LIFESPAN), Tumor Site: Type of Lesion: PLEURAL CAVITY: MESOTHELIOMA): active; positive

CCNC(=S)NCC
carcinogen call (Species: MOUSE, Strain/Sex: B6C3F1/FEMALE, Route: ORAL, Dose: 0, 250, 500 PPM IN DIET, Dose: 0, 250, 500 PPM IN DIET): inactive; negative
carcinogen call (Species: MOUSE, Strain/Sex: B6C3F1/MALE, Route: ORAL, Dose: 0, 250, 500 PPM IN DIET, Dose: 0, 250, 500 PPM IN DIET): inactive; negative
carcinogen call (Species: RAT, Strain/Sex: F344/FEMALE, Route: ORAL, Dose: 0, 125, 250 PPM IN DIET, Dose: 0, 125, 250 PPM IN DIET, Tumor Site: Type of Lesion: THYROID GLAND: FOLLICULAR CELL CARCINOMA OR FOLLICULAR CELL ADENOMA): active; positive
carcinogen call (Species: RAT, Strain/Sex: F344/MALE, Route: ORAL, Dose: 0, 125, 250 PPM IN DIET, Dose: 0, 125, 250 PPM IN DIET, Tumor Site: Type of Lesion: THYROID GLAND: FOLLICULAR CELL CARCINOMA OR FOLLICULAR CELL ADENOMA): active; positive

c1ccc2[nH]c(-c3cscn3)nc2c1
carcinogen call (Species: MOUSE, Strain/Sex: CD-1/FEMALE, Route: ORAL, Dose: 0, 0.031, 0.125, 0.5% IN DIET FOR 78 WK (STUDY DURATION: 78 WK), Dose: 0, 0.031, 0.125, 0.5% IN DIET FOR 78 WK (STUDY DURATION: 78 WK)): inactive; negative
carcinogen call (Species: MOUSE, Strain/Sex: CD-1/MALE, Route: ORAL, Dose: 0, 0.031, 0.125, 0.5% IN DIET FOR 78 WK (STUDY DURATION: 78 WK), Dose: 0, 0.031, 0.125, 0.5% IN DIET FOR 78 WK (STUDY DURATION: 78 WK)): inactive; negative
carcinogen call (Species: MOUSE, Strain/Sex: ICR/MALE, Route: ORAL, Dose: 0, 0.8, 1.2, 1.6% IN DIET FOR 44 WK (STUDY DURATION: 44 WK), Dose: 0, 0.8, 1.2, 1.6% IN DIET FOR 44 WK (STUDY DURATION: 44 WK)): inactive; negative
carcinogen call (Species: RAT, Strain/Sex: F344/FEMALE, Route: ORAL, Dose: 0, 0.05, 0.1, 0.2, 0.4% IN DIET FOR 104 WK (STUDY DURATION: 104 WK), Dose: 0, 0.05, 0.1, 0.2, 0.4% IN DIET FOR 104 WK (STUDY DURATION: 104 WK)): inactive; negative
carcinogen call (Species: RAT, Strain/Sex: F344/MALE, Route: ORAL, Dose: 0, 0.05, 0.1, 0.2, 0.4% IN DIET FOR 104 WK (STUDY DURATION: 104 WK), Dose: 0, 0.05, 0.1, 0.2, 0.4% IN DIET FOR 104 WK (STUDY DURATION: 104 WK)): inactive; negative
